One series deals with MCF-7. The series can be described thus: Cytotoxicity of AGM-330-CPP fusion peptides. It counts as cell-based, Human. The conditions noted are these: MCF-7, fusion peptide alone, Example 11.
In another series the test system is HCT-116. The series can be described thus: Cytotoxicity of AGM-330-CPP fusion peptides. It counts as cell-based, Human. The settings on record: HCT-116, fusion peptide alone, Example 11.
The next series relates to MDA-MB-231-luc cells. Description: Tumor suppression in breast cancer xenograft model. It counts as in vivo, NPG mice. The protocol: FIG. 14B is a schematic representation of the experimental protocol. Here, anesthetized 6-week-old […] NPG mice were inoculated with a 1:1 mix of Matrigel and 1×10^6 MDA-MB-231-luc cells into the mammary fat pad. […] Nuclei were stained with DAPI (blue), and the scale bar is 50 μm. Bar graphs represent the mean±SD, and statistical analyses were performed by one-way ANOVA with Dunnett's multiple comparison. *, **, and *** indicate P<0.05, P<0.01, and P<0.001, respectively. […]
All animal experiments were performed in accordance with IACUC guidelines (GIST-2019-040). For tumorigenesis experiments, anesthetized 6-week-old female NOD-scid Il2rg^−/− mice (NPG™, VITALSTAR) were inoculated in the mammary fat pad with 1×10^6 MDA-MB-231-luc cells in a volume of 100 μl (n=5˜6 for each group). After tumor cell inoculation, when the tumor volume reached approximately 100 mm^3, the mice were randomly divided into the following five groups: (i) control, (ii) low-dose paclitaxel (2 mg/kg), (iii) high-dose paclitaxel (10 mg/kg), (iv) AGM-330 (16.68 mg/kg or 8.34 mg/kg), and (v) AGM-330-PTX (19.05 mg/kg or 10.71 mg/kg). The tumor size was measured twice a week, and the tumor volume was calculated with the following formula:
For the bioluminescent imaging experiment, D-luciferin (150 mg/kg; PerkinElmer) was intraperitoneally injected into each mouse, and an IVIS 100 imaging system (Xenogen, Corporation, Alameda, CA) was used for bioluminescent monitoring. Mice were anesthetized with vaporized isoflurane (BK Pharm, Ilsan, Korea) and placed in an imaging chamber. After 10 min, each animal was imaged with an exposure time of 1 min. All bioluminescent image data were provided by Living Image software (version 4.5.2, PerkinElmer). Photons detected from tumors were converted to average radiance values (photon/see/cm^2/sr), which are quantitative data obtained from a region of intensity (ROI) and include the photons emitted by bioluminescent cells from an assigned rectangular area over the whole body of each mouse.
Following in vitro proliferation analysis on cancer lines, the present inventors investigated whether AGM-330t-PTX could be a potential therapeutic agent in vivo. The present inventors inoculated MDA-MB-231-luc cells into the mammary fat pad of NPG mice. After the subcutaneous tumors grew to 100 mm^3, comparative efficacy studies were performed by dividing the animals into five groups (n=5/group) treated with vehicle (PBS), AGM-330t (16.68 mg/kg), PTX (2 or 10 mg/kg, respectively) or AGM-330t-PTX (19.05 mg/kg) twice a week by tail vein injection (FIG. 14B). Tumor growth was monitored by measuring volumes twice a week with a caliber rule over the course of 3 weeks.
The present inventors also performed histological staining of the excised tumors, and an independent pathologist evaluated the slides.

A short description of series [1]: Body weight and serum blood chemistry in xenograft mice.

The values that follow come from patent publication US20250032629A1, “NOVEL NUCLEOLIN-BINDING PEPTIDE AND USE THEREOF” (ANYGEN CO., LTD., priority 2020, published 2025).

A word on the IC50: it is the concentration that inhibits the measured activity by half. The low end stands for inhibition by little substance, the high end for a need for much substance.

In the case of `CC[C@H](C)[C@H](NC(=O)[C@H](CCCNC(=N)N)NC(=O)[C@H](CC(C)C)NC(=O)[C@@H](NC(=O)[C@H](CCCNC(=N)N)NC(=O)[C@H](CCSC)NC(=O)[C@@H](NC(=O)[C@@H](N)CCCNC(=N)N)[C@@H](C)CC)[C@@H](C)CC)C(=O)N[C@@H](CC(C)C)C(=O)N[C@@H](CCCCN)C(=O)N[C@@H](CC(C)C)C(=O)N[C@@H](C)C(=O)N[C@@H](CCCNC(=N)N)C(=O)NCCCC[C@H](NC(=O)[C@H](CCCNC(=N)N)NC(=O)[C@H](C)NC(=O)[C@H](CC(C)C)NC(=O)[C@H](CCCCN)NC(=O)[C@H](CC(C)C)NC(=O)[C@@H](NC(=O)[C@H](CCCNC(=N)N)NC(=O)[C@H](CC(C)C)NC(=O)[C@@H](NC(=O)[C@H](CCCNC(=N)N)NC(=O)[C@H](CCSC)NC(=O)[C@@H](NC(=O)[C@@H](N)CCCNC(=N)N)[C@@H](C)CC)[C@@H](C)CC)[C@@H](C)CC)C(=O)N[C@@H](CSSC[C@H](NC(=O)[C@H](CCCCNC(=O)CCOCCOCCOCCOCCOCCOCCNC(=O)[C@H](CCCCN)NC(=O)[C@H](CC(C)C)NC(=O)[C@H](Cc1ccc(O)cc1)NC(=O)[C@@H](NC(=O)[C@H](CCSC)NC(=O)[C@H](C)NC(=O)CNC(=O)[C@H](Cc1c[nH]cn1)NC(=O)[C@@H](N)CCCNC(=N)N)C(C)C)NC(=O)CCOCCOCCOCCOCCOCCOCCNC(=O)[C@H](CCCCN)NC(=O)[C@H](CC(C)C)NC(=O)[C@H](Cc1ccc(O)cc1)NC(=O)[C@@H](NC(=O)[C@H](CCSC)NC(=O)[C@H](C)NC(=O)CNC(=O)[C@H](Cc1c[nH]cn1)NC(=O)[C@@H](N)CCCNC(=N)N)C(C)C)C(=O)O)C(=O)O` [AGM-330d-dCPP], the values for the IC50 in the series on MCF-7 and in the series on HCT-116 were 4.21 µM and 5.47 µM, respectively.

In the series on MDA-MB-231-luc cells (19.05 mg/kg twice a week, tail vein, n=5), `CSCC[C@H](NC(=O)[C@H](C)NC(=O)CNC(=O)[C@H](Cc1c[nH]cn1)NC(=O)[C@@H](N)CCCNC(=N)N)C(=O)N[C@H](C(=O)N[C@@H](Cc1ccc(O)cc1)C(=O)N[C@@H](CC(C)C)C(=O)N[C@@H](CCCCN)C(=O)NCCOCCOCCOCCOCCOCCOCCOCCOCCOCCOCCOCCOCCC(=O)NCCCC[C@H](NC(=O)CCOCCOCCOCCOCCOCCOCCOCCOCCOCCOCCOCCOCCNC(=O)[C@H](CCCCN)NC(=O)[C@H](CC(C)C)NC(=O)[C@H](Cc1ccc(O)cc1)NC(=O)[C@@H](NC(=O)[C@H](CCSC)NC(=O)[C@H](C)NC(=O)CNC(=O)[C@H](Cc1c[nH]cn1)NC(=O)[C@@H](N)CCCNC(=N)N)C(C)C)C(=O)NCCCC[C@H](NC(=O)[C@H](CCCCNC(=O)CCOCCOCCOCCOCCOCCOCCOCCOCCOCCOCCOCCOCCNC(=O)[C@H](CCCCN)NC(=O)[C@H](CC(C)C)NC(=O)[C@H](Cc1ccc(O)cc1)NC(=O)[C@@H](NC(=O)[C@H](CCSC)NC(=O)[C@H](C)NC(=O)CNC(=O)[C@H](Cc1c[nH]cn1)NC(=O)[C@@H](N)CCCNC(=N)N)C(C)C)NC(=O)CCOCCOCCOCCOCCOCCOCCOCCOCCOCCOCCOCCOCCNC(=O)[C@H](CCCCN)NC(=O)[C@H](CC(C)C)NC(=O)[C@H](Cc1ccc(O)cc1)NC(=O)[C@@H](NC(=O)[C@H](CCSC)NC(=O)[C@H](C)NC(=O)CNC(=O)[C@H](Cc1c[nH]cn1)NC(=O)[C@@H](N)CCCNC(=N)N)C(C)C)C(=O)N[C@@H](CSC1CC(=O)N(CCC(=O)O[C@@H](C(=O)O[C@H]2C[C@@]3(O)[C@@H](OC(=O)c4ccccc4)[C@@H]4[C@]5(OC(C)=O)CO[C@@H]5C[C@H](O)[C@@]4(C)C(=O)[C@H](OC(C)=O)C(=C2C)C3(C)C)[C@@H](NC(=O)c2ccccc2)c2ccccc2)C1=O)C(=O)O)C(C)C` (some centres unmarked) [AGM-330t-PTX] registered an average tumor volume of 807±90 mm^3. In addition, the “decrease of average tumor volume with respect to the same dose PTX” value in the series on MDA-MB-231-luc cells (19.05 mg/kg vs PTX 2 mg/kg) is recorded as “approximately 52%”. The “final average tumor weight” value in the series on MDA-MB-231-luc cells (19.05 mg/kg, n=5) is 1.3 ± 0.1 g. In addition, in the series with MDA-MB-231-luc cells (mouse, in vivo), the “apoptotic cell nuclei in excised tumors (TUNEL)” value was “increase in apoptotic cell nuclei” and the “number of cancerous cells in excised tumors (H&E staining, Ki-67)” value is “reduction in the number of cancerous cells”. For the same molecule, in series [1] (AGM-330t-PTX 19.05 mg/kg, 3 weeks), the “mouse body weights compared to vehicle (PBS) administration” value was “not affected”. The “blood chemistry analysis (ALB, GOT, GPT, TP-PS, UA)” value in series [1] (serum of xenografted mice) is recorded as “no adverse signs of toxicity”.

For `CC[C@H](C)[C@H](NC(=O)[C@H](CCCNC(=N)N)NC(=O)[C@H](CC(C)C)NC(=O)[C@@H](NC(=O)[C@H](CCCNC(=N)N)NC(=O)[C@H](CCSC)NC(=O)[C@@H](NC(=O)[C@@H](N)CCCNC(=N)N)[C@@H](C)CC)[C@@H](C)CC)C(=O)N[C@@H](CC(C)C)C(=O)N[C@@H](CCCCN)C(=O)N[C@@H](CC(C)C)C(=O)N[C@@H](C)C(=O)N[C@@H](CCCNC(=N)N)C(=O)NCCCC[C@H](NC(=O)[C@H](CCCNC(=N)N)NC(=O)[C@H](C)NC(=O)[C@H](CC(C)C)NC(=O)[C@H](CCCCN)NC(=O)[C@H](CC(C)C)NC(=O)[C@@H](NC(=O)[C@H](CCCNC(=N)N)NC(=O)[C@H](CC(C)C)NC(=O)[C@@H](NC(=O)[C@H](CCCNC(=N)N)NC(=O)[C@H](CCSC)NC(=O)[C@@H](NC(=O)[C@@H](N)CCCNC(=N)N)[C@@H](C)CC)[C@@H](C)CC)[C@@H](C)CC)C(=O)NCCCC[C@H](NC(=O)[C@H](CCCCNC(=O)[C@H](CCCNC(=N)N)NC(=O)[C@H](C)NC(=O)[C@H](CC(C)C)NC(=O)[C@H](CCCCN)NC(=O)[C@H](CC(C)C)NC(=O)[C@@H](NC(=O)[C@H](CCCNC(=N)N)NC(=O)[C@H](CC(C)C)NC(=O)[C@@H](NC(=O)[C@H](CCCNC(=N)N)NC(=O)[C@H](CCSC)NC(=O)[C@@H](NC(=O)[C@@H](N)CCCNC(=N)N)[C@@H](C)CC)[C@@H](C)CC)[C@@H](C)CC)NC(=O)[C@H](CCCNC(=N)N)NC(=O)[C@H](C)NC(=O)[C@H](CC(C)C)NC(=O)[C@H](CCCCN)NC(=O)[C@H](CC(C)C)NC(=O)[C@@H](NC(=O)[C@H](CCCNC(=N)N)NC(=O)[C@H](CC(C)C)NC(=O)[C@@H](NC(=O)[C@H](CCCNC(=N)N)NC(=O)[C@H](CCSC)NC(=O)[C@@H](NC(=O)[C@@H](N)CCCNC(=N)N)[C@@H](C)CC)[C@@H](C)CC)[C@@H](C)CC)C(=O)N[C@@H](CSSC[C@H](NC(=O)[C@H](CCCCNC(=O)[C@H](CCCCNC(=O)CCOCCOCCOCCOCCOCCOCCNC(=O)[C@H](CCCCN)NC(=O)[C@H](CC(C)C)NC(=O)[C@H](Cc1ccc(O)cc1)NC(=O)[C@@H](NC(=O)[C@H](CCSC)NC(=O)[C@H](C)NC(=O)CNC(=O)[C@H](Cc1c[nH]cn1)NC(=O)[C@@H](N)CCCNC(=N)N)C(C)C)NC(=O)CCOCCOCCOCCOCCOCCOCCNC(=O)[C@H](CCCCN)NC(=O)[C@H](CC(C)C)NC(=O)[C@H](Cc1ccc(O)cc1)NC(=O)[C@@H](NC(=O)[C@H](CCSC)NC(=O)[C@H](C)NC(=O)CNC(=O)[C@H](Cc1c[nH]cn1)NC(=O)[C@@H](N)CCCNC(=N)N)C(C)C)NC(=O)[C@H](CCCCNC(=O)CCOCCOCCOCCOCCOCCOCCNC(=O)[C@H](CCCCN)NC(=O)[C@H](CC(C)C)NC(=O)[C@H](Cc1ccc(O)cc1)NC(=O)[C@@H](NC(=O)[C@H](CCSC)NC(=O)[C@H](C)NC(=O)CNC(=O)[C@H](Cc1c[nH]cn1)NC(=O)[C@@H](N)CCCNC(=N)N)C(C)C)NC(=O)CCOCCOCCOCCOCCOCCOCCNC(=O)[C@H](CCCCN)NC(=O)[C@H](CC(C)C)NC(=O)[C@H](Cc1ccc(O)cc1)NC(=O)[C@@H](NC(=O)[C@H](CCSC)NC(=O)[C@H](C)NC(=O)CNC(=O)[C@H](Cc1c[nH]cn1)NC(=O)[C@@H](N)CCCNC(=N)N)C(C)C)C(=O)O)C(=O)O` [AGM-330t-tCPP], the IC50 with MCF-7 stood at 3.8 µM; in the series on HCT-116, 3.79 µM.
